Data reported in ChEMBL document CHEMBL6096628, “Discovery of a Highly Potent and Selective BRD9 PROTAC Degrader Based on E3 Binder Investigation for the Treatment of Hematological Tumors” (J Med Chem, 2024).
The source made the active and inactive calls. No cut-off for these calls is given here.

Columns and labels:
SU-DHL-6 = assay: Antiproliferative activity against human SU-DHL-6 cells assessed as inhibition of cell growth incubated for 7 days by MTS reagent based assay; assay type: functional; conditions: SU-DHL-6, 168 h
MV4-11 [1] = assay: Downregulation of BRD9 protein expression in human MV4-11 cells by proteomic analysis; assay type: functional, cell-based
Mus musculus = assay: Upregulation of BRD4 expression in Balb/c nude mouse tumor xenografted with human MV4-11 cells at 20 mg/kg, ip administered once daily for 20 days by Western blot analysis; assay type: functional, organism-based; conditions: time 20.0 day
MV4-11 [2] = assay: Induction of BRD4 degradation in human MV4-11 cells at 100 nM by Western blot analysis; assay type: cell-based

Structure (SMILES): COc1cc(-c2cn(C)c(=O)c3ccccc23)cc(OC)c1CN1CCC(CN2CCC(c3ccc4c5c(cccc35)C(=O)N4C3CCC(=O)NC3=O)CC2)CC1 (centres undefined)
- IC50 (SU-DHL-6): 375 nM
- Activity (MV4-11 [1]): Active
- Activity (Mus musculus): Active
- Activity (MV4-11 [2]): inactive
